Reference: US20250129067A1 (Progentos Therapeutics, Inc., priority 2021, published 2025)
pIC50: −log10 of the molar value. Where two headings read alike, the source gives them in different places.

Columns and labels:
[1] = system: Oligodendrocyte progenitor cells (OPCs); experiment: In vitro OPC differentiation assay, GPR17 expression (immunocytochemistry); conditions: 72 hours; for GPR17 Fold Induction (Over Vehicle; 3 μM): 3 μM (10× concentration, final 0.3 μM)
PDGFRα = PDGFRα (Homo sapiens (Human), UniProt P16234); experiment: PDGFRα kinase enzyme assay (Promega PDGFRα Kinase Enzyme System, ADP-Glo); assay type: biochemical; conditions: 150 uM ATP
Description: The PDGFRα enzyme assays were conducted per the manufacturer's directions (Promega PDGFRα Kinase Enzyme System and ADP Glo Assay Cat #V8011). […] 20 ng of purified PDGFRα protein was added to the test article. […] ADP-Glo was added to halt the kinase reaction and deplete the remaining ATP. Kinase detection reagent, containing luciferase and luciferin, was used to convert the ADP signal into luminescence. Luminescence was measured using a Molecular Devices Spectramax ID5 and compared to a standard curve to determine kinase activity. IC50s were calculated using Prism 9, Graphpad software.

[2] = 11-point dose response, 10,000 nM to 0.169 nM, BLQ = below limit of quantitation, read-out: IC50 Values on PDGFRα Kinase Inhibition, IC50

Chain of PDGFRα (P16234 24-1089): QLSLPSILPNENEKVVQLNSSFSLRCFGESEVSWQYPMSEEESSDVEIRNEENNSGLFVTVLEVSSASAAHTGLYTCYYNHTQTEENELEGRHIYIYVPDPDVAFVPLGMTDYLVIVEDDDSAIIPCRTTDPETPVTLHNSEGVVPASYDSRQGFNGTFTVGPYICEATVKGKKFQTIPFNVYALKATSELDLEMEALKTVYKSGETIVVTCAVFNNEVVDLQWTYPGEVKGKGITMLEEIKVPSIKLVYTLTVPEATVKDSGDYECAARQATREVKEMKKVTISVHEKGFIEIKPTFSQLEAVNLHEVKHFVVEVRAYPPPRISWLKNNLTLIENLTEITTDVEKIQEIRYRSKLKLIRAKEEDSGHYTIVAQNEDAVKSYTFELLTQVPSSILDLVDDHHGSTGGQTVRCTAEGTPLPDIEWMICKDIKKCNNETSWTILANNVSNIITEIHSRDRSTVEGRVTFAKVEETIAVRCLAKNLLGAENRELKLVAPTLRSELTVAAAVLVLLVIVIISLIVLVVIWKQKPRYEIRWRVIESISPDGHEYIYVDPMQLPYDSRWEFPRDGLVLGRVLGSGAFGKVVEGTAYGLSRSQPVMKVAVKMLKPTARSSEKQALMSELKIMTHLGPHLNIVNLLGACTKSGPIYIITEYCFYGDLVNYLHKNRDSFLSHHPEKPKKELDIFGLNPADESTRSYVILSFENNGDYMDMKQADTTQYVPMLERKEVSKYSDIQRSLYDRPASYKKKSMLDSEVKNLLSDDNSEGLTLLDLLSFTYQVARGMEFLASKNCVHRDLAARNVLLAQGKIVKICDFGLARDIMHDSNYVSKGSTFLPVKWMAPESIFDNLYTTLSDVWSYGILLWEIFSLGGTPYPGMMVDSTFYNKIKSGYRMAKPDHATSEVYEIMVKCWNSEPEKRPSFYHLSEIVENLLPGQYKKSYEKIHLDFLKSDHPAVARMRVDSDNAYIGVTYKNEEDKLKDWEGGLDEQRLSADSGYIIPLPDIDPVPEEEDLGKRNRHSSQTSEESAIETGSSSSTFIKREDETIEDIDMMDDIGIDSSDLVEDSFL

GPR17 Fold Induction (Over Vehicle; 3 μM) ([1]; fold change over vehicle) | pIC50 (PDGFRα; [2]) | GPR17 Fold Induction (Over Vehicle; 5 μM) ([1]; primary rat OPCs, 5 μM (10x; final 0.5 μM per method), percent GPR17+ cells as fold change over vehicle) | pIC50 (PDGFRα; 20 ng purified PDGFRα, Poly (Glu4Tyr1) substrate, two hours, 11-point dose response, read-out: IC50 Values on PDGFRα Kinase Inhibition) | GPR17 Fold Induction (Over Vehicle; 5 μM) ([1]; 5 μM (10× concentration, final 0.5 μM), fold change over vehicle) | Structure (SMILES)
3.96 | 5.62 |  |  |  | Cn1cc(-c2ccc3c(N4CCN(c5ncc(Cc6ncco6)cn5)CC4)cnn3c2)cn1 [Compound 170, 2-((2-(4-(6-(1-methyl-1H-pyrazol-4-yl)pyrazolo[1,5-a]pyridin-3-yl)piperazin-1-yl)pyrimidin-5-yl)methyl)oxazole]
4.95 | 5.75 |  |  |  | CC(O)C(O)c1cnc(N2CCN(c3cnn4cc(-c5cnn(C)c5)ccc34)CC2)nc1 (centres unmarked) [Compound 286, 1-(2-(4-(6-(1-methyl-1H-pyrazol-4-yl)pyrazolo[1,5-a]pyridin-3-yl)piperazin-1-yl)pyrimidin-5-yl)propane-1,2-diol]
1.56 | < 5.00 |  |  |  | CCC(O)c1ccc2c(N3CCN(C(=O)OC(C)(C)C)CC3)cnn2c1 (centres unmarked) [Compound 298, tert-butyl 4-(6-(1-hydroxypropyl)pyrazolo[1,5-a]pyridin-3-yl)piperazine-1-carboxylate]
5.22 | < 5.00 |  |  |  | Cn1cc(-c2ccc3c(N4CCN(c5nc(Cc6ccccc6)ns5)CC4)cnn3c2)cn1 [Compound 245, 3-benzyl-5-(4-(6-(1-methyl-1H-pyrazol-4-yl)pyrazolo[1,5-a]pyridin-3-yl)piperazin-1-yl)-1,2,4-thiadiazole]
6.03 | 5.29 |  |  |  | Cn1cc(-c2ccc3c(N4CCN(c5ncc(Sc6ccccc6)cn5)CC4)cnn3c2)cn1 [Compound 188, 6-(1-methyl-1H-pyrazol-4-yl)-3-(4-(5-(phenylthio)pyrimidin-2-yl)piperazin-1-yl)pyrazolo[1,5-a]pyridine]
0.57 | < 5.00 |  |  |  | Cn1cc(-c2cc3ncc(N4CCN(c5ncc(Cc6ccccc6)cn5)CC4)n3cn2)cn1 [Compound 113, 3-(4-(5-benzylpyrimidin-2-yl)piperazin-1-yl)-7-(1-methyl-1H-pyrazol-4-yl)imidazo[1,2-c]pyrimidine]
4.35 | 5.91 |  |  |  | Cn1cc(-c2ccc3c(N4CCN(c5ncc(CC6CCOCC6)cn5)CC4)cnn3c2)cn1 [Compound 68, 6-(1-methyl-1H-pyrazol-4-yl)-3-{4-[5-(tetrahydro-2H-pyran-4-ylmethyl)pyrimidin-2-yl]piperazin-1-yl}pyrazolo[1,5-a]pyridine]
6.18 | 6.03 |  |  |  | Cn1cc(-c2ccc3c(-c4ccn(-c5ncc(Cc6ccccc6)cn5)c4)cnn3c2)cn1 [Compound 76, 3-[1-(5-benzylpyrimidin-2-yl)-1H-pyrrol-3-yl]-6-(1-methyl-1H-pyrazol-4-yl)pyrazolo[1,5-a]pyridine]
6.43 | 6.98 |  |  |  | CCCCC(O)c1cnc(N2CCN(c3cnn4cc(-c5cnn(C)c5)ccc34)CC2)nc1 (centres unmarked) [Compound 168, 1-(2-(4-(6-(1-methyl-1H-pyrazol-4-yl)pyrazolo[1,5-a]pyridin-3-yl)piperazin-1-yl)pyrimidin-5-yl)pentan-1-ol]
1.11 | 5.37 |  |  |  | Cn1cc(-c2ccc3c(N4CCN(C(=O)OCC5CCOCC5)CC4)cnn3c2)cn1 [Compound 14, Tetrahydro-2H-pyran-4-ylmethyl 4-[6-(1-methyl-1H-pyrazol-4-yl)pyrazolo[1,5-a]pyridin-3-yl]piperazine-1-carboxylate]
3.74 | 6.04 |  |  |  | Cc1nn(C)c(C)c1-c1ccc2c(N3CCN(C(=O)OC(C)(C)C)CC3)cnn2c1 [Compound 222, tert-butyl 4-(6-(1,3,5-trimethyl-1H-pyrazol-4-yl)pyrazolo[1,5-a]pyridin-3-yl)piperazine-1-carboxylate]
0.81 | < 5.00 |  |  |  | CC(C)(C)OC(=O)N1CCCN(c2cnc3cc(-c4cccnc4)ncn23)CC1 [Compound 92, tert-butyl 4-(7-(pyridin-3-yl)imidazo[1,2-c]pyrimidin-3-yl)-1,4-diazepane-1-carboxylate]
5.28 | 5.25 |  |  |  | C[C@@H](OC(=O)N1CCN(c2cnn3cc(-c4cnn(C)c4)ccc23)CC1)C1CCCCC1 [Compound 57, (1R)-1-cyclohexylethyl 4-[6-(1-methyl-1H-pyrazol-4-yl)pyrazolo[1,5-a]pyridin-3-yl]piperazine-1-carboxylate]
0.58 | 5.16 |  |  |  | CC(C)(C)OC(=O)N1CCN(c2cnc3nc(-c4cccnc4)ccn23)CC1 [Compound 102, tert-butyl 4-(7-(pyridin-3-yl)imidazo[1,2-a]pyrimidin-3-yl)piperazine-1-carboxylate]
8.65 | 7.50 |  |  |  | Cn1cc(-c2cnn3c(N4CCN(C(=O)NCc5ccc(C(F)(F)F)cc5)CC4)cnc3c2)cn1 [Compound 295, 4-(7-(1-methyl-1H-pyrazol-4-yl)imidazo[1,2-b]pyridazin-3-yl)-N-(4-(trifluoromethyl)benzyl)piperazine-1-carboxamide]
10.61 | 6.44 |  |  |  | CC(C)(C)OC(=O)N1CCN(c2cnn3cc(-c4cn(CCO)cn4)ccc23)CC1 [Compound 229, tert-butyl 4-(6-(1-(2-hydroxyethyl)-1H-imidazol-4-yl)pyrazolo[1,5-a]pyridin-3-yl)piperazine-1-carboxylate]
3.46 | 5.64 |  |  |  | CC(C)(C)OC(=O)N1CCN(c2cnn3cc(-c4ccncc4)ccc23)CC1 [Compound 218, tert-butyl 4-(6-(pyridin-4-yl)pyrazolo[1,5-a]pyridin-3-yl)piperazine-1-carboxylate]
3.89 | 6.21 |  |  |  | CC1CN(c2cnn3cc(-c4cnn(C)c4)ccc23)CCN1c1ncc(Cc2ccccc2)cn1 (centres unmarked) [Compound 143, 3-(4-(5-benzylpyrimidin-2-yl)-3-methylpiperazin-1-yl)-6-(1-methyl-1H-pyrazol-4-yl)pyrazolo[1,5-a]pyridine]
0.87 | < 5.00 |  |  |  | Cn1cc(-c2ccn3c(N4CCCN(C(=O)NCc5ccc(C(F)(F)F)cc5)CC4)cnc3n2)cn1 [Compound 120, 4-(7-(1-methyl-1H-pyrazol-4-yl)imidazo[1,2-a]pyrimidin-3-yl)-N-(4-(trifluoromethyl)benzyl)-1,4-diazepane-1-carboxamide]
1.92 | < 5.00 |  |  |  | CC(C)(C)OC(=O)N1CCN(c2cnn3cc(CCCN4CCCC4)ccc23)CC1 [Compound 205, tert-butyl-4-(6-(3-(pyrrolidin-1-yl)propyl)pyrazolo[1,5-a]pyridin-3-yl)piperazine-1-carboxylate]
4.90 | 6.15 |  |  |  | Cn1cc(-c2ccc3c(N4CCN(c5ncc(Cc6cscn6)cn5)CC4)cnn3c2)cn1 [Compound 172, 4-((2-(4-(6-(1-methyl-1H-pyrazol-4-yl)pyrazolo[1,5-a]pyridin-3-yl)piperazin-1-yl)pyrimidin-5-yl)methyl)thiazole]
10.65 | 6.40 |  |  |  | Cn1cc(-c2cnn3c(N4CCN(S(=O)(=O)NCc5ccc(C(F)(F)F)cc5)CC4)cnc3c2)cn1 [Compound 296, 4-(7-(1-methyl-1H-pyrazol-4-yl)imidazo[1,2-b]pyridazin-3-yl)-N-(4-(trifluoromethyl)benzyl)piperazine-1-sulfonamide]
3.62 | 6.35 |  |  |  | Cn1cc(-c2ccc3c(N4CCN(S(=O)(=O)NCc5ccccc5)CC4)cnn3c2)cn1 [Compound 159, N-benzyl-4-[6-(1-methyl-1H-pyrazol-4-yl)pyrazolo[1,5-a]pyridin-3-yl]piperazine-1-sulfonamide]
1.03 | < 5.00 |  |  |  | CC(C)(C)OC(=O)N1CCN(c2cnn3cc(-c4cncn4CCCN4CCOCC4)ccc23)CC1 [Compound 232, tert-butyl 4-(6-(1-(3-morpholinopropyl)-1H-imidazol-5-yl)pyrazolo[1,5-a]pyridin-3-yl)piperazine-1-carboxylate]
 |  | 4.68 | 5.92 |  | Cc1ccc(F)c(NC(=O)Nc2ccc(-c3cccc4[nH]nc(N)c34)cc2)c1 [Linifanib (ABT-869), linifanib, reference compound]
0.62 | < 5.00 |  |  |  | CN(CCN(C)c1cnc2cc(-c3cccnc3)ncn12)C(=O)OC(C)(C)C [Compound 99, tert-butyl methyl(2-(methyl(7-(pyridin-3-yl)imidazo[1,2-c]pyrimidin-3-yl)amino)ethyl)carbamate]
0.50 | < 5.00 |  |  |  | CN(CCN(C)c1cnc2nc(-c3cnn(C)c3)ccn12)C(=O)OC(C)(C)C [Compound 96]
10.21 | 5.08 |  |  | 4.64 | Cn1cc(-c2ccc3c(N4CCN(c5ncc(CN6CCCCC6)cn5)CC4)cnn3c2)cn1 [Compound 42, 6-(1-methyl-1H-pyrazol-4-yl)-3-{4-[5-(piperidin-1-ylmethyl)pyrimidin-2-yl]piperazin-1-yl}pyrazolo[1,5-a]pyridine]

Structure (SMILES) | GPR17 Fold Induction (Over Vehicle; 3 μM) ([1]; fold change over vehicle) | pIC50 (PDGFRα; [2]) | GPR17 Fold Induction (Over Vehicle; 5 μM) ([1]; primary rat OPCs, 5 μM (10x; final 0.5 μM per method), percent GPR17+ cells as fold change over vehicle) | pIC50 (PDGFRα; 20 ng purified PDGFRα, Poly (Glu4Tyr1) substrate, two hours, 11-point dose response, read-out: IC50 Values on PDGFRα Kinase Inhibition) | GPR17 Fold Induction (Over Vehicle; 5 μM) ([1]; 5 μM (10× concentration, final 0.5 μM), fold change over vehicle)
CC(C)(C)OC(=O)N1CCN(c2cnn3cc(-c4cncnc4)ccc23)CC1 [Compound 219, tert-butyl 4-(6-(pyrimidin-5-yl)pyrazolo[1,5-a]pyridin-3-yl)piperazine-1-carboxylate] | 1.42 | < 5.00 |  |  | 
